The text below walks through data of DBAASP.

Test systems include Staphylococcus aureus MR; Escherichia coli; Bacillus subtilis; Enterococcus faecalis VR; Staphylococcus aureus; Salmonella typhimurium; Pseudomonas aeruginosa; Pseudomonas syringae.
Common to all, as to experiment: ≥ marks a high value that may be exact or a test limit, other limits are often not marked, values filed in µg/mL are converted to µM
Test [1] relates to Staphylococcus aureus ATCC 12493.
Test [2] has as its system Staphylococcus aureus NCTC 10788.
Test [3] relates to Candida albicans NCPF 1467.
The test system of test [4] is Escherichia coli NCTC 10418.
Test [5] relates to Staphylococcus epidermidis.
The subject of test [6] is Staphylococcus aureus ATCC 9144.
Test [7] has as its system Klebsiella pneumoniae ATCC 700603.
Test [8] has as its system Escherichia coli ATCC 23506.
Test [9] concerns Staphylococcus aureus ATCC 25923.
Test [10] relates to Pseudomonas aeruginosa ATCC 9027.
Test [11] relates to Candida albicans ATCC 10231.
In test [12] the test system is Enterococcus faecalis PCM 2673.
Test [13] has as its system Streptococcus pneumoniae ATCC 49619.
The test system of test [14] is Escherichia coli ATCC 25922.
In test [15] the test system is Candida glabrata ATCC 15126.
In test [16] the test system is Aspergillus niger ATCC 16404.
For test [17], the system named is Xanthomonas axonopodis pv. phaseoli ATCC 9563.

As a reminder, the MIC is the least concentration at which growth counts as inhibited. Read a low MIC as greater potency.

Converted amounts (≈) assume the structure as drawn.

As to `CC(C)C[C@H](NC(=O)[C@H](CC(C)C)NC(=O)[C@H](CC(C)C)NC(=O)[C@@H]1CCCN1C(=O)[C@H](CC(C)C)NC(=O)[C@@H](N)Cc1ccccc1)C(=O)N[C@@H](C)C(=O)NCC(=O)N[C@@H](CC(C)C)C(=O)N1CCC[C@H]1C(=O)N[C@@H](CCCCN)C(=O)N[C@@H](Cc1ccccc1)C(=O)N[C@@H](CC(C)C)C(=O)N[C@H]1CSSC[C@@H](C(=O)O)NC(=O)[C@H](CCCCN)NC(=O)[C@H](CCCCN)NC(=O)[C@H](Cc2ccccc2)NC(=O)[C@H](C(C)C)NC(=O)[C@H](CC(C)C)NC1=O` [FLPLLLAGLPKFLCLVFKKC], the minimal inhibitory concentration (MIC) in test [1] is 16 µM (≈ 36.2 µg/mL); in test [2] it was 16 µM (≈ 36.2 µg/mL); in test [3], 16 µM (≈ 36.2 µg/mL); in [4], at least 512 µM.
In the case of `CC(C)C[C@H](NC(=O)CNC(=O)[C@H](C)NC(=O)[C@H](CCCN=C(N)N)NC(=O)[C@H](CO)NC(=O)[C@H](CO)NC(=O)[C@H](CCCN=C(N)N)NC(=O)[C@@H](N)[C@@H](C)O)C(=O)N[C@@H](CCC(N)=O)C(=O)N[C@@H](Cc1c[nH]c2ccccc12)C(=O)N1CCC[C@H]1C(=O)N[C@H](C(=O)NCC(=O)N[C@@H](CCCN=C(N)N)C(=O)N[C@H](C(=O)N[C@@H](Cc1cnc[nH]1)C(=O)N[C@@H](CCCN=C(N)N)C(=O)N[C@@H](CC(C)C)C(=O)N[C@@H](CC(C)C)C(=O)N[C@@H](CCCN=C(N)N)C(=O)N[C@@H](CCCCN)C(=O)O)C(C)C)C(C)C` [TRSSRAGLQWPVGRVHRLLRK], the minimal inhibitory concentration (MIC) against Staphylococcus aureus MR came to 0.707 µM (≈ 1.75 µg/mL); with Escherichia coli it was 1 µM (≈ 2.47 µg/mL); against Bacillus subtilis, 0.5 µM (≈ 1.24 µg/mL); against Enterococcus faecalis VR, 1 µM (≈ 2.47 µg/mL); in the test with Staphylococcus aureus, 1 µM (≈ 2.47 µg/mL); in test [5] it was 2 µM (≈ 4.95 µg/mL). Further, the MIC in the test with Salmonella typhimurium came out at 0.5 µM (≈ 1.24 µg/mL); with Pseudomonas aeruginosa, 2 µM (≈ 4.95 µg/mL).
Turning to `CC[C@H](C)[C@H](NC(=O)CNC(=O)[C@H](CCCN=C(N)N)NC(=O)[C@@H](NC(=O)[C@H](CC(C)C)NC(=O)[C@H](CO)NC(=O)CNC(=O)[C@@H](NC(=O)[C@@H](N)CC(C)C)[C@@H](C)CC)C(C)C)C(=O)N[C@@H](CC(C)C)C(=O)N1CCC[C@H]1C(=O)N[C@@H](CC(C)C)C(=O)N[C@@H](Cc1ccccc1)C(N)=O` [LIGSLVRGILPLF], the MIC in [6] was at least 45.8 µM; in test [7], 91.6 µM (≈ 128 µg/mL); in test [8], at least 183 µM; in test [9], 45.8 µM (≈ 64 µg/mL); in [10] it was 183 µM (≈ 256 µg/mL); in test [11] it was 183 µM (≈ 256 µg/mL). In addition, the minimal inhibitory concentration (MIC) was at least 183 µM in test [12]; at least 183 µM in test [13]; 183 µM (≈ 256 µg/mL) in [14]; at least 183 µM in [15]; at least 183 µM in [16].
In the case of `CC[C@H](C)[C@H](NC(=O)[C@H](CCCCN)NC(=O)[C@H](CC(N)=O)NC(=O)[C@H](CCCCN)NC(=O)[C@H](CC(C)C)NC(=O)[C@H](Cc1ccc(O)cc1)NC(=O)[C@H](CCC(N)=O)NC(=O)[C@H](CCCN=C(N)N)NC(=O)[C@@H](NC(=O)[C@@H](NC(=O)[C@H](CCCCN)NC(=O)[C@H](CCCCN)NC(=O)CNC(=O)[C@H](C)N)[C@@H](C)O)[C@@H](C)CC)C(=O)N[C@@H](CCCCN)C(=O)N[C@@H](CCCCN)C(=O)N[C@@H](CCCCN)C(=O)NCC(=O)N[C@@H](CCCN=C(N)N)C(=O)N[C@@H](CCCCN)C(=O)N[C@@H](Cc1c[nH]c2ccccc12)C(=O)N[C@H](C(=O)N[C@H](C(=O)N[C@@H](C)C(=O)N[C@@H](Cc1c[nH]c2ccccc12)C(=O)O)[C@@H](C)CC)C(C)C` [AGKKTIRQYLKNKIKKKGRKWVIAW], the MIC came to 8 µM (≈ 24.3 µg/mL) with Pseudomonas syringae and 2 µM (≈ 6.09 µg/mL) in test [17].
